These results are taken from US7524861B2, “Process for the preparation of a hydrate of an anthranilic acid derivative” (priority 2002, dated 2009).

Molecules are shown by their SMILES.

Holding throughout (assay type): cell-based
One assay concerns 2780AD. The assay is described as follows: Potentiation of toxicity of various cytotoxic agents, potentiation index. As to conditions: Taxol, compound 10 nM. Here is the method:
(§1) (b) Cells were cultured for four days with a titration of doxorubicin (0.263 nM-[…]) in the presence of a fixed concentration of each compound. Proliferation was quantified as described by Skehen et al, loc cit. The IC50 (concentration required to reduce proliferation to 50% of the untreated controls) for doxorubicin alone and with each compound were derived and used to calculate the potentiation index (PI):
(§2) The potentiation indices of a selection of compounds using a variety of cell lines and a variety of cytotoxics other than doxorubicin were measured following the protocol described above for doxorubicin, and the results are shown in Table D.

In a further assay the test system is H69/LX4. Described as above. As to conditions: for Potentiaton Index at RMA Concentration 10 nM: compound 10 nM; for Potentiaton Index at RMA Concentration 30 nM: compound 30 nM. Here is the method: as §1, §2
The test system of the next assay is AR 1.0 cells. The assay is described as follows: Potentiation of doxorubicin toxicity: proliferation assay, compound titrated against fixed doxorubicin (sulphorhodamine B). As to conditions: Mus musculus, 96 h; with fixed doxorubicin (0.34 mm); four day incubation; read-out: Toxicity with Cytotoxic Agent (IC50 mM). Here is the method:
The EMT6 mouse mammary carcinoma cell line and the MDR resistant subline AR 1.0 were cultured in RPMI 1640 medium containing 10% foetal calf serum and 2 mM glutamine at 37° C. in 5% CO2. Cells were passaged between 1 in 200 and 1 in 2000 in the case of the parental cell line and between 1 in 20 and 1 in 200 in the case of the MDR resistant subline, after trypsinisation (0.25% trypsin, 0.2 gl^−1, EDTA).
(a) Selected compounds of formula (I) were examined for their ability to potentiate the toxicity of doxorubicin in AR 1.0 cells. In initial proliferation assays compounds were titrated against a fixed concentration of doxorubicin ([…]) which alone is non-toxic to AR 1.0 cells. After a four day incubation with doxorubicin proliferation was measured using the colorimetric sulphorhodamine B assay (Skehan et al; J Natl. Cancer Inst. 82 pp 1107-1112 (1990)).

As a reminder, the IC50 is the point on the concentration scale where inhibition reaches its midpoint.

For `COc1cc2c(cc1OC)CN(CCc1ccc(NC(=O)c3sccc3NC(=O)c3cnc4ccccc4c3)cc1)CC2` [Compound 3, Quinoline-3-carboxylic acid (2-{4-[2-(6,7-dimethoxy-3,4-dihydro-1H-isoquinolin-2-yl)-ethyl]-phenylcarbamoyl}-thiophen-3-yl)-amide], the “Potentiaton Index at RMA Concentration 10 nM” value in the assay on 2780AD is given as 18. Moreover, in the assay on H69/LX4 (Vincristine), the “Potentiaton Index at RMA Concentration 10 nM” value came to 2 and the “Potentiaton Index at RMA Concentration 30 nM” value is 79.

`COc1cc2c(cc1OC)CN(CCc1ccc(NC(=O)c3c(C)csc3NC(=O)c3cnc4ccccc4c3)cc1)CC2` [Compound 6, Quinoline-3-carboxylic acid (3-{4-[2-(6,7-dimethoxy-3,4-dihydro-1H-isoquinolin-2-yl)-ethyl]-phenylcarbamoyl}-4-methyl-thiophen-2-yl)-amide]: in the assay on H69/LX4 (Taxol), the “Potentiaton Index at RMA Concentration 10 nM” value was determined as 1 and the “Potentiaton Index at RMA Concentration 30 nM” value came out at 3. In addition, the “Potentiaton Index at RMA Concentration 50 nM” value in the assay with H69/LX4 (Taxol, compound 50 nM) worked out at 9. In the case of `COc1ccc(CN(C)CCc2ccc(NC(=O)c3ccccc3NC(=O)c3cnc4ccccc4c3)cc2)cc1OC` [Compound 7, Quinoline-3-carboxylic acid [2-(4-{2-[(3,4-dimethoxy-benzyl)-methyl-amino]-ethyl}-phenylcarbamoyl)-phenyl]-amide], the “Potentiaton Index at RMA Concentration 10 nM” value in the assay on H69/LX4 (Taxol) amounted to 2.2.

Turning to `COc1cc2c(cc1OC)CN(CCNC(=O)c1ccccc1NC(=O)c1nccc3ccccc13)CC2` [Compound 27, Isoquinoline-1-carboxylic acid {2-[2-(6,7-dimethoxy-3,4-dihydro-1H-isoquinolin-2-yl)-ethylcarbamoyl]-phenyl}-amide], the IC50 with AR 1.0 cells is 1000 nM. Regarding `COc1cc2c(cc1OC)CN(CCNC(=O)c1ccccc1NC(=O)c1ccc3ccccc3n1)CC2` [Compound 28, Quinoline-2-carboxylic acid {2-[2-(6,7-dimethoxy-3,4-dihydro-1H-isoquinolin-2-yl)-ethylcarbamoyl]-phenyl}-amide], the IC50 in the assay with AR 1.0 cells turned out to be 550 nM. The same measure, in the same setting: with `COc1cc2c(cc1OC)CN(CCNC(=O)c1ccccc1NC(=O)c1cc3ccccc3cn1)CC2` [Compound 29, Isoquinoline-3-carboxylic acid {2-[2-(6,7-dimethoxy-3,4-dihydro-1H-isoquinolin-2-yl)-ethylcarbamoyl]-phenyl}-amide] the figure was 300 nM. The same measure, in the same setting: next, `COc1cc2c(cc1OC)CN(CCc1ccc(NC(=O)c3cc(F)ccc3NC(=O)c3cnc4ccccc4c3)cc1)CC2` [Compound 33, Quinoline-3-carboxylic acid (2-{4-[2-(6,7-dimethoxy-3,4-dihydro-1H-isoquinolin-2-yl)-ethyl]-phenylcarbamoyl}-4-fluoro-phenyl)-amide]: 5 nM. For the compound `COc1cc2c(cc1OC)CN(CCc1ccc(NC(=O)c3cc(OC)c(OC)cc3NC(=O)c3cnc4ccccc4c3)cc1)CC2` [Compound 34, Quinoline-3-carboxylic acid (2-{4-[2-(6,7-dimethoxy-3,4-dihydro-1H-isoquinolin-2-yl)-ethyl]-phenylcarbamoyl}-4,5-dimethoxy-phenyl)-amide], the IC50 with AR 1.0 cells was determined as 1.8 nM. Same read-out and setting: with `COc1cc2c(cc1OC)CN(CCc1ccc(NC(=O)c3cc4c(cc3NC(=O)c3cnc5ccccc5c3)OCO4)cc1)CC2` [Compound 35, Quinoline-3-carboxylic acid (6-{4-[2-(6,7-dimethoxy-3,4-dihydro-1H-isoquinolin-2-yl)-ethyl]-phenylcarbamoyl}-benzo[1,3]dioxol-5-yl)-amide] the figure was 1.4 nM; with `COc1cc2c(cc1OC)CN(CCc1ccc(NC(=O)c3ccc([N+](=O)[O-])cc3NC(=O)c3cnc4ccccc4c3)cc1)CC2` [Compound 36, Quinoline-3-carboxylic acid (2-{4-[2-(6,7-dimethoxy-3,4-dihydro-1H-isoquinolin-2-yl)-ethyl]-phenylcarbamoyl}-5-nitro-phenyl)-amide], 3.8 nM.

Consider `COc1cc2c(cc1OC)CN(CCc1ccc(NC(=O)c3cc(C)ccc3NC(=O)c3cnc4ccccc4c3)cc1)CC2` [Compound 37, Quinoline-3-carboxylic acid (2-{4-[2-(6,7-dimethoxy-3,4-dihydro-1H-isoquinolin-2-yl)-ethyl]-phenylcarbamoyl}-4-methyl-phenyl)-amide], for which the half-maximal inhibitory concentration (IC50) with AR 1.0 cells was determined as 15 nM. For the compound `COc1cc2c(cc1OC)CN(CCc1ccc(NC(=O)c3ccc(C)cc3NC(=O)c3cnc4ccccc4c3)cc1)CC2` [Compound 38, Quinoline-3-carboxylic acid (2-{4-[2-(6,7-dimethoxy-3,4-dihydro-1H-isoquinolin-2-yl)-ethyl]-phenylcarbamoyl}-5-methyl-phenyl)-amide], the IC50 in the assay with AR 1.0 cells was found to be 5 nM.

Take `COc1cc2c(cc1OC)CN(CCc1ccc(NC(=O)c3cc(Cl)ccc3NC(=O)c3cnc4ccccc4c3)cc1)CC2` [Compound 39, Quinoline-3-carboxylic acid (2-{4-[2-(6,7-dimethoxy-3,4-dihydro-1H-isoquinolin-2-yl)-ethyl]-phenylcarbamoyl}-4-chloro-phenyl)-amide]: the 50% inhibitory concentration (IC50) in the assay with AR 1.0 cells is 5 nM. For `COc1cc2c(cc1OC)CN(CCc1ccc(NC(=O)c3ccc(Cl)cc3NC(=O)c3cnc4ccccc4c3)cc1)CC2` [Compound 40, Quinoline-3-carboxylic acid (2-{4-[2-(6,7-dimethoxy-3,4-dihydro-1H-isoquinolin-2-yl)-ethyl]-phenylcarbamoyl}-5-chloro-phenyl)-amide], the IC50 in the assay with AR 1.0 cells turned out to be 40 nM. Same read-out and setting: next, `COc1cc2c(cc1OC)CN(CCc1ccc(NC(=O)c3ccc(N)cc3NC(=O)c3cnc4ccccc4c3)cc1)CC2` [Compound 41, Quinoline-3-carboxylic acid (2-{4-[2-(6,7-dimethoxy-3,4-dihydro-1H-isoquinolin-2-yl)-ethyl]-phenylcarbamoyl}-5-amino-phenyl)-amide]: 4400 nM; `COc1cc2c(cc1OC)CN(CCc1ccc(NC(=O)c3ccccc3NC(=O)c3ccc4ccccc4n3)cc1)CC2` [Compound 42, Quinoline-2-carboxylic acid (2-{4-[2-(6,7-dimethoxy-3,4-dihydro-1H-isoquinolin-2-yl)-ethyl]-phenylcarbamoyl}-phenyl)-amide]: 70 nM. With `COc1cc2c(cc1OC)CN(CCc1ccc(NC(=O)c3ccccc3NC(=O)c3cnc4c(c3)CCCC4)cc1)CC2` [Compound 43, 5,6,7,8-Tetrahydroquinoline-3-carboxylic acid (2-{4-[2-(6,7-dimethoxy-3,4-dihydro-1H-isoquinolin-2-yl)-ethyl]-phenylcarbamoyl}-phenyl)-amide], the IC50 in the assay with AR 1.0 cells was 50 nM. On the same count and under the same terms, with `O=C(Nc1ccccc1C(=O)Nc1ccc(CCN2CCc3ccccc3C2)cc1)c1cnc2ccccc2c1` [Compound 44, Quinoline-3-carboxylic acid (2-{4-[2-(3,4-dihydro-1H-isoquinolin-2-yl)-ethyl]-phenylcarbamoyl}-phenyl)-amide] the figure was 0.35 nM; with `COc1cc2c(cc1OC)CN(Cc1ccc(NC(=O)c3ccccc3NC(=O)c3cnc4ccccc4c3)cc1)CC2` [Compound 45, Quinoline-3-carboxylic acid {2-[4-(6,7-dimethoxy-3,4-dihydro-1H-isoquinolin-2-ylmethyl)-phenylcarbamoyl]-phenyl}-amide], 22 nM.
